Laboratory results: patent US10532081B2, “Method of ameliorating or preventing the worsening or the progression of symptoms of BPH” (Nymox Corporation, priority 2016, dated 2020)
Marks after values point to notes of the source that are not given here.

Test system: Patients with BPH
Experiment: Double-blind clinical study: intraprostatic injection in patients with BPH, symptoms evaluated by International Prostate Symptom Score (IPSS)
Format: in vivo, human
Source text: The International Prostate Symptom Score (I-PSS) is based on the answers to seven questions concerning urinary symptoms and one question concerning quality of life. Each question concerning urinary symptoms allows the patient to choose one out of six answers indicating increasing severity of the particular symptom. The answers are assigned points from 0 to 5. The total score can therefore range from 0 to 35 (asymptomatic to very symptomatic). The questions refer to the following urinary symptoms:
Patients with BPH were given an intraprostatic injection of either a) SEQ ID NO. 66 (Ile-Asp-Gln-Gln-Val-Leu-Ser-Arg-Ile-Lys-Leu-Glu-Ile-Lys-Arg-Cys-Leu) in phosphate buffered saline pH 7.2 (“PBS”) or b) PBS alone, under double-blind conditions by a urologist in an office setting under ultrasound guidance. Patients were followed for 1 to 6 years with regular physical examinations, laboratory tests, and evaluations of symptoms. Symptomatic evaluation was measured by the International Prostate Symptom Score (IPSS) which is a quantitative scale used to gauge prostatic symptomatic improvement or worsening. The IPSS quantifies the following: 1) incomplete bladder emptying after urination; 2) frequent urination; 3) stopping and starting during urination; 4) urgent need to urinate; 5) weakness of urinary stream; 6) need to push or strain during urination; 7) need to urinate after going to sleep at night (nocturia). The difference from baseline IPSS was compared in all patients who were given an intraprostatic injection of SEQ ID NO. 66 to the difference from baseline IPSS in patients who received PBS alone. […] 66 treated patients, there was also an unexpected decrease in the incidence of worsening and progression in symptoms in patients treated with SEQ ID NO. 66.
Patients with BPH were given an intraprostatic injection of either a) SEQ ID NO. 66 in phosphate buffered saline pH 7.2 (“PBS”) or b) PBS alone, under double-blind conditions by a urologist in an office setting under ultrasound guidance. Subsequently, 326 placebo and SEQ ID NO. 66 treated subjects were administered an intraprostatic injection of SEQ ID NO. 66 (2.5 mg). Patients were followed for 1 to 6 years with physical examinations, laboratory tests, and evaluations of symptoms. Symptomatic evaluation was measured by the International Prostate Symptom Score (IPSS) which is a quantitative scale used to gauge prostatic symptomatic improvement or worsening. The IPSS quantifies the following: 1) incomplete bladder emptying after urination; 2) frequent urination; 3) stopping and starting during urination; 4) urgent need to urinate; 5) weakness of urinary stream; 6) need to push or strain during urination; 7) need to urinate after going to sleep at night (nocturia). The difference from baseline IPSS was compared in placebo patients who subsequently received SEQ ID NO. 66 vs results in patients who received PBS alone. […] 66 treated patients there was also an unexpected decrease in the incidence of worsening or lack of improvement in symptoms in patients treated with SEQ ID NO. 66.
Patients with BPH were given an intraprostatic injection of either a) SEQ ID NO. 66 in phosphate buffered saline pH 7.2 (“PBS”) or b) PBS alone, under double-blind conditions by a urologist in an office setting under ultrasound guidance. Subsequently, 326 subjects were given an intraprostatic injection of SEQ ID NO. 66 (2.5 mg). Symptomatic evaluation was measured by the International Prostate Symptom Score (IPSS) which is a quantitative scale used to gauge prostatic symptomatic improvement or worsening. The IPSS quantifies the following: 1) incomplete bladder emptying after urination; 2) frequent urination; 3) stopping and starting during urination; 4) urgent need to urinate; 5) weakness of urinary stream; 6) need to push or strain during urination; 7) need to urinate after going to sleep at night (nocturia). […]

**Q.** Which results are given for “IDQQVLSRIKLEIKRCL [SEQ ID NO: 66, NTP peptide Ile-Asp-Gln-Gln-Val-Leu-Ser-Arg-Ile-Lys-Leu-Glu-Ile-Lys-Arg-Cys-Leu, injected intraprostatically in phosphate buffered saline pH 7.2]”?
**A.** Percentage of worsening of IPSS (Example 1: all patients given one intraprostatic injection of SEQ ID NO. 66 in PBS, followed 1 to 6 years, p < .02 vs PBS alone): 13.1%*; Percentage of worsening of IPSS or no improvement in IPSS (Example 2: placebo patients who subsequently received intraprostatic SEQ ID NO. 66 (2.5 mg), followed 1 to 6 years, p < 0.0001 vs PBS alone): 17.3%*; Percentage of worsening of IPSS or no improvement in IPSS (Example 3: patients who received two intraprostatic injections of SEQ ID NO. 66 (second 2.5 mg), p < 0.0001 vs PBS alone): 17.6%*; Percentage of worsening of IPSS or no improvement of IPSS (Example 4: all placebo and SEQ ID NO. 66 treated patients subsequently given intraprostatic SEQ ID NO. 66 (2.5 mg), followed 1 to 6 years, p < .0001 vs PBS alone): 17.5%*; Percentage of worsening of IPSS (Example 5: placebo patients who subsequently received intraprostatic SEQ ID NO. 66 (2.5 mg), followed 1 to 6 years, p < 0.0001 vs PBS alone): 9.0%*; Percentage of worsening of IPSS (Example 6: patients who received SEQ ID NO. 66 and subsequently SEQ ID NO. 66 (2.5 mg) intraprostatic, followed 1 to 6 years, p < 0.05 vs PBS alone): 13.5%*; Percentage of worsening of IPSS (Example 7: all placebo and SEQ ID NO. 66 treated patients subsequently given intraprostatic SEQ ID NO. 66 2.5 mg, followed 1 to 6 years, p < .0001 vs PBS alone): 11.7%*; Percentage of worsening of IPSS or no improvement of IPSS (Example 8: patients given one intraprostatic injection of SEQ ID NO. 66 in PBS, followed 1 to 6 years, p < .003 vs PBS alone): 36.4%*; improvement of symptoms (difference from baseline IPSS) compared to PBS alone (SEQ ID NO. 66 patients subsequently treated with SEQ ID NO. 66 (two injections)): more improvement; improvement of symptoms (difference from baseline IPSS) compared to PBS alone (all placebo and SEQ ID NO. 66 treated patients subsequently treated with SEQ ID NO. 66 (2.5 mg)): more improvement; improvement of symptoms (difference from baseline IPSS) compared to PBS alone (one intraprostatic injection of SEQ ID NO. 66, followed 1 to 6 years): more improvement; improvement of symptoms (difference from baseline IPSS) compared to PBS alone (placebo patients subsequently treated with SEQ ID NO. 66 (2.5 mg)): more improvement
